Assay [1] addresses T1, JAK2 (a.a. 828-1132) catalytic domain (Homo sapiens, UniProt O60674).
T1 construct: JAK2 (a.a. 828-1132); His tag (N); made in house; host or cells: insect cells (baculovirus)
The assay is described as follows: In vitro JAK kinase assay (HTRF, phosphorylation of biotinylated peptide), JAK2. It is filed as biochemical. The note with it: ATP 1 mM. The procedure:
Compounds herein were tested for inhibitory activity of JAK targets according to the following in vitro assay described in Park et al., Analytical Biochemistry 1999, 269, 94-104. The catalytic domains of human JAK1 (a.a. 837-1142) and JAK2 (a.a. 828-1132) with an N-terminal His tag were expressed using baculovirus in insect cells and purified. The catalytic activity of JAK1 and JAK2 was assayed by measuring the phosphorylation of a biotinylated peptide. The phosphorylated peptide was detected by homogenous time resolved fluorescence (HTRF). […] For the 1 mM IC50 measurements, ATP concentration in the reactions was 1 mM. Reactions were carried out at room temperature for 1 hour and then stopped with 20 μL 45 mM EDTA, 300 nM SA-APC, 6 nM Eu-Py20 in assay buffer (Perkin Elmer, Boston, Mass.). Binding to the Europium labeled antibody took place for 40 minutes and HTRF signal was measured on a Fusion plate reader (Perkin Elmer, Boston, Mass.). See Tables A and B for data related to compounds of the invention (at 1 mM). Data is indicated as ranges, wherein “+” is less than 5 nM; “++” is 5 nM to 25 nM; “+++” is greater than 25 nM to 100 nM; and “++++” is greater than 100 nM.
Background: Time-resolved FRET reads energy transfer from a long-lived donor to a nearby acceptor.

For assay [2], the target named is T2, human JAK1 (a.a. 837-1142) catalytic domain (Homo sapiens, UniProt P23458).
T2 construct: human JAK1 (a.a. 837-1142); His tag (N); made in house; host or cells: insect cells (baculovirus)
T2 sequence (P23458 849-1154): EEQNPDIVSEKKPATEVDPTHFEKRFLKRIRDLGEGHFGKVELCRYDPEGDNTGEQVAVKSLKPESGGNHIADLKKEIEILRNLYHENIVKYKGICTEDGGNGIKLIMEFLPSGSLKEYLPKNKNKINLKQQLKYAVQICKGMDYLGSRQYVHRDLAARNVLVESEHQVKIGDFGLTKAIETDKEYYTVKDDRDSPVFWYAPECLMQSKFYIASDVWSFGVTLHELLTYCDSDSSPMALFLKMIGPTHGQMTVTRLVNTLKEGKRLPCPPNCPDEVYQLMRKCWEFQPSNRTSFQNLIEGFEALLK
The assay is described as follows: In vitro JAK kinase assay (HTRF, phosphorylation of biotinylated peptide), JAK1. The note with it: ATP 1 mM. The assay is classed as biochemical. The protocol:
Compounds herein were tested for inhibitory activity of JAK targets according to the following in vitro assay described in Park et al., Analytical Biochemistry 1999, 269, 94-104. The catalytic domains of human JAK1 (a.a. 837-1142) and JAK2 (a.a. 828-1132) with an N-terminal His tag were expressed using baculovirus in insect cells and purified. The catalytic activity of JAK1 and JAK2 was assayed by measuring the phosphorylation of a biotinylated peptide. The phosphorylated peptide was detected by homogenous time resolved fluorescence (HTRF). […] For the 1 mM IC50 measurements, ATP concentration in the reactions was 1 mM. Reactions were carried out at room temperature for 1 hour and then stopped with 20 μL 45 mM EDTA, 300 nM SA-APC, 6 nM Eu-Py20 in assay buffer (Perkin Elmer, Boston, Mass.). Binding to the Europium labeled antibody took place for 40 minutes and HTRF signal was measured on a Fusion plate reader (Perkin Elmer, Boston, Mass.). […] Data is indicated as ranges, wherein “+” is less than 5 nM; “++” is 5 nM to 25 nM; “+++” is greater than 25 nM to 100 nM; and “++++” is greater than 100 nM.

Broadly, the IC50 is the concentration that gives 50% inhibition. Low values mean greater potency, high ones weaker potency.

T1 sequence (O60674 828-1132): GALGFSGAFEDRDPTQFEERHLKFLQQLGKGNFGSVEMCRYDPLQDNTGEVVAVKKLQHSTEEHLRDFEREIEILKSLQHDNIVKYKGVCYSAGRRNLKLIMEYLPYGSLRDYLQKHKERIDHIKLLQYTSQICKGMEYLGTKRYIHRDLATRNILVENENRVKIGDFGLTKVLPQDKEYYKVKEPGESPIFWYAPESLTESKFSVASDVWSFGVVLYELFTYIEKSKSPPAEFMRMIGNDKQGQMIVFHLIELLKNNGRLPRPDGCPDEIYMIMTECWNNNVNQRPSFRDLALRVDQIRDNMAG

As to `CN(C)Cc1cc(F)cc(OC2CCN(CC(CC#N)n3cc(-c4ncnc5[nH]ccc45)cn3)CC2)c1` (single isomer, unassigned) [Example 20 Enantiomer 2, 4-(4-{3-[(Dimethylamino)methyl]-5-fluorophenoxy}piperidin-1-yl)-3-[4-(7H-pyrrolo[2,3-d]pyrimidin-4-yl)-1H-pyrazol-1-yl]butanenitrile (chiral)], in assay [1] (Table A), the IC50 is 5 to 25 nM.

With `N#CCC(CN1CCC(Oc2cc(F)cc(C#N)c2)C(F)C1)n1cc(-c2ncnc3[nH]ccc23)cn1` (single isomer, unassigned) [Example 31 diastereomer 1, 3-[(1-{3-Cyano-2-[4-(7H-pyrrolo[2,3-d]pyrimidin-4-yl)-1H-pyrazol-1-yl]propyl}-3-fluoropiperidin-4-yl)oxy]-5-fluorobenzonitrile (two diastereomers)], the IC50 in assay [2] (Table B) was in the range of 5 to 25 nM; in assay [1] (Table B) it was 25 to 100 nM. `N#CCC(CN1CCC(Oc2cc(F)cc(C#N)c2)C(F)C1)n1cc(-c2ncnc3[nH]ccc23)cn1` (single isomer, unassigned) [Example 31 diastereomer 2, 3-[(1-{3-Cyano-2-[4-(7H-pyrrolo[2,3-d]pyrimidin-4-yl)-1H-pyrazol-1-yl]propyl}-3-fluoropiperidin-4-yl)oxy]-5-fluorobenzonitrile (two diastereomers)]: the IC50 was under 5 nM in assay [2] (Table B) and 25 to 100 nM in assay [1] (Table B).

Regarding `C[C@@H]1CCCN1Cc1cc(F)cc(OC2CCN(CC(CC#N)n3cc(-c4ncnc5[nH]ccc45)cn3)CC2F)c1` (single isomer, unassigned) [Example 32 diastereomer 2], the 50% inhibitory concentration (IC50) is under 5 nM in assay [2] (Table B) and 5 to 25 nM in assay [1] (Table B). As for `C[C@H]1CCCN1Cc1cc(F)cc(OC2CCN(CC(CC#N)n3cc(-c4ncnc5[nH]ccc45)cn3)CC2F)c1` (single isomer, unassigned) [Example 33 diastereomer 2], the IC50 in assay [2] (Table B) was under 5 nM; in assay [1] (Table B), 25 to 100 nM. Regarding `N#CCC(CN1CCC(Oc2cc(F)cc(F)c2)CC1)n1cc(-c2ncnc3[nH]ccc23)cn1` (stereo not drawn) [Example 1, 4-[4-(3,5-Difluorophenoxy)piperidin-1-yl]-3-[4-(7H-pyrrolo[2,3-d]pyrimidin-4-yl)-1H-pyrazol-1-yl]butanenitrile tris(trifluoroacetate)], the IC50 in assay [2] (Table A) lay in the range of 5 to 25 nM; in assay [1] (Table A), 25 to 100 nM. `N#CCC(CN1CCC(Oc2cc(F)cc(Cl)c2)CC1)n1cc(-c2ncnc3[nH]ccc23)cn1` (stereo not drawn) [Example 2]: the IC50 is under 5 nM in assay [2] (Table A) and 25 to 100 nM in assay [1] (Table A). `N#CCC(CN1CCC(Oc2cc(F)cc(C(F)(F)F)c2)CC1)n1cc(-c2ncnc3[nH]ccc23)cn1` (stereo not drawn) [Example 3, 4-{4-[3-Fluoro-5-(trifluoromethyl)phenoxy]piperidin-1-yl}-3-[4-(7H-pyrrolo[2,3-d]pyrimidin-4-yl)-1H-pyrazol-1-yl]butanenitrile tris(trifluoroacetate)]: the IC50 is 5 to 25 nM in assay [2] (Table A) and over 100 nM in assay [1] (Table A). The matching figures for `N#CCC(CN1CCC(Oc2cc(F)c(F)c(F)c2)CC1)n1cc(-c2ncnc3[nH]ccc23)cn1` (stereo not drawn) [Example 4, 3-[4-(7H-Pyrrolo[2,3-d]pyrimidin-4-yl)-1H-pyrazol-1-yl]-4-[4-(3,4,5-trifluorophenoxy)piperidin-1-yl]butanenitrile tris(trifluoroacetate)]: 5 to 25 nM and 25 to 100 nM.

In the case of `N#CCC(CN1CCC(Oc2cc(F)cc(F)c2F)CC1)n1cc(-c2ncnc3[nH]ccc23)cn1` (stereo not drawn) [Example 5, 3-[4-(7H-Pyrrolo[2,3-d]pyrimidin-4-yl)-1H-pyrazol-1-yl]-4-[4-(2,3,5-trifluorophenoxy)piperidin-1-yl]butanenitrile tris(trifluoroacetate)], the values for the half-maximal inhibitory concentration (IC50) in assay [2] (Table A) and in assay [1] (Table A) were under 5 nM and 5 to 25 nM, respectively. Taken in the same sequence, the figures for `N#CCC(CN1CCC(Oc2cc(F)cc(C#N)c2)CC1)n1cc(-c2ncnc3[nH]ccc23)cn1` (stereo not drawn) [Example 6, 3-[(1-{3-Cyano-2-[4-(7H-pyrrolo[2,3-d]pyrimidin-4-yl)-1H-pyrazol-1-yl]propyl}piperidin-4-yl)oxy]-5-fluorobenzonitrile tris(trifluoroacetate)] were under 5 nM and 25 to 100 nM.

Values taken from patent publication US9034884B2, “Heterocyclic-substituted pyrrolopyridines and pyrrolopyrimidines as JAK inhibitors” (Incyte Corporation, priority 2010, dated 2015).
